Each molecule was assayed against T1, Mtb cytochrome bd (Mycobacterium tuberculosis, UniProt L7N662+O06139). Details: read-out: % remaining OCR at 10 μM.
T1 sequence (L7N662 1-485): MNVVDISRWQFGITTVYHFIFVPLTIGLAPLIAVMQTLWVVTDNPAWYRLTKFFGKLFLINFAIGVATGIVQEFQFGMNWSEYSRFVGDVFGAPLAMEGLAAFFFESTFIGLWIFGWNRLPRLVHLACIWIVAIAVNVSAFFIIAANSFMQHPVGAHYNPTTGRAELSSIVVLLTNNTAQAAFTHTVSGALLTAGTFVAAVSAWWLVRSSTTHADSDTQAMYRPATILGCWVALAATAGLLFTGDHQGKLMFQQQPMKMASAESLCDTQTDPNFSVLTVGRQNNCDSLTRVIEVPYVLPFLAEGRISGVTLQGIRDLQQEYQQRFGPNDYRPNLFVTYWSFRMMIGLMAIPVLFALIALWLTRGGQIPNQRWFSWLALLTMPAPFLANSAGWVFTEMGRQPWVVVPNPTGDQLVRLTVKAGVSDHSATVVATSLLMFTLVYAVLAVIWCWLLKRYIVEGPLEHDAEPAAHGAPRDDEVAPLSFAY
T1 sequence (O06139 1-346): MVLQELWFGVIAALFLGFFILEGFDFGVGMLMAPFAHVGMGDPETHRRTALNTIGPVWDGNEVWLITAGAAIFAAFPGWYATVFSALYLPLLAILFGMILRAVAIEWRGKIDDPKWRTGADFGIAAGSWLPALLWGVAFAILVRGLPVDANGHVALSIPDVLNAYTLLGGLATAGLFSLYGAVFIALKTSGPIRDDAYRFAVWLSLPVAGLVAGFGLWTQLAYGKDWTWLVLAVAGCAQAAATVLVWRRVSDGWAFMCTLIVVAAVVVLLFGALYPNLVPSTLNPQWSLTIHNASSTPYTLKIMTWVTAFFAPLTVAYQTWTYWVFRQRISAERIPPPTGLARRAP
Format: biochemical

Compound	remaining activity at 10 µM [%]
CCOc1ccc(-c2nc(CSc3nc4ccccc4c(=O)n3CCCN3CCCC3=O)c(C)o2)cc1 [F3382-2259]	30.4
C=CCSc1ncc(-c2ccccc2)n1-c1ccc(C)cc1 [F2964-1180]	50.6
CC(C)(c1cc(Br)c(OCC(O)CN2CCN(Cc3ccccc3)CC2)c(Br)c1)c1cc(Br)c(OCC(O)CN2CCN(Cc3ccccc3)CC2)c(Br)c1 (stereo not drawn) [F0777-1198]	51
